Where two headings read alike, the source gives them in different places. Where only a bound is given, the exact number is not on record here.

Experiment [1] relates to Pseudomonas aeruginosa, PA01. Put plainly: MIC of antibiotics with added chitosan-arginine (live/dead checkerboard). It is filed as cell-based. The conditions noted are these: for factor of decrease of MIC: addition of 4 μg/ml chitosan-arginine. The protocol:
The assay was conducted as follows. In each case, the minimum inhibitory concentration (MIC) in μg/ml was determined for the antibiotic alone against Pseudomonas aeruginosa.

Experiment [2] relates to Mupirocin and Methicilin resistant Staphylcoccus aureus (MMRSA, 2-4C strain). Briefly: Checkerboard time course assay (vCFU) in water. It is filed as cell-based, Staphylococcus aureus. The protocol:
(§1) The plate was allowed to sit for 24 hours, before being centrifuged at 4000 RPM for 10 minutes, and resuspended in an appropriate enriched growth media (LB or Todd Hewitt Broth). The optical density of the plate was read over the course of 24 hours at 37° C. The optical density readings were used to compute a time to an arbitrary threshold of 0.25, which is correlated using a growth curve for this MMRSA, to virtual colony forming (vCFU) counts.

The subject of experiment [3] is MMRSA. Briefly: Sensitization summary: MMRSA to Mupirocin. It is filed as cell-based, Staphylococcus aureus. The conditions noted are these: Mupirocin resistance breakpoint 8 μg/mL. The protocol:
(§2) By definition, resistance is defined by a “resistance breakpoint” above which a bacterium is considered resistant (and is related to side effects and toxicity).
as §1

The subject of experiment [4] is MRSA strain MW-2 (ATCC BAA-1707). Put plainly: Checkerboard vCFU assay chitosan-arginine and Oxacillin in PBS. It is filed as cell-based, Staphylococcus aureus. The settings on record: alone. The protocol:
Approximately 10^6 cells/mL were added to each well. Incubation occurred at ambient temperature for 20 h, then bacteria were centrifuged and resuspended in an appropriate growth media. The optical density (OD) was read over the course of 18 h at 37° C. The time (in seconds) to an arbitrary threshold OD of 0.15 was used with reference to a growth curve, to calculate the initial bacterial concentration of bacteria (vCFU).

For experiment [5] the test system is unchanged. Put plainly: Chitosan-arginine/Oxacillin checkerboard growth inhibition assay. It is filed as cell-based, Staphylococcus aureus. The settings on record: chitosan-arginine 1 μg/mL alone or Oxacillin 0.78 μg/mL alone. Here is the method:
Approximately 10^5 cells was added to each of the wells. The optical density of the plate was read over the course of 24 hours at 37° C.

The test system is the same in experiment [6]. Briefly: Standard checkerboard assay in Mueller Hinton media, chitosan-arginine and Oxacillin. The settings on record: Staphylococcus aureus. It is filed as cell-based. Here is the method:
Bacteria were incubated at 37° C. for the standard 20 hours. MRSA MIC values were obtained by OD595 (optical density). The entire experiment was repeated three times.

In experiment [7] the test system is MRSA. Put plainly: Sensitization summary: MRSA to Oxacillin. It is filed as cell-based, Staphylococcus aureus. The protocol:
as §2
(§3) Approximately 10^5 cells were added to each of the wells. […] Optical density readings of the plate were taken, and averaged to determine inhibited samples Inhibition is defined by the final optical density (OD) being less than or equal to ½ the control OD.

Experiment [8] concerns P. aeuriginosa strain PA01 (ATCC BAA-47). Put plainly: Checkerboard assay chitosan-arginine and Tobramycin. It is filed as cell-based. The settings on record: Pseudomonas aeruginosa, ATCCBAA47, read-out: Tobramycin (MIC), alone; determined alongside each C/A lot. The protocol: Bacteria were incubated at 37° C. for the standard 20 hours.
P. aeuriginosa produces the fluorescent pigment pyocyanin, which can be correlated with bacterial growth.

Experiment [9] deals with VRE (Vancomycin resistant Enterococcus). Put plainly: Sensitization summary: VRE to Vancomycin. It is filed as cell-based, Enterococcus faecium. The conditions noted are these: for Antibiotic concentration (MIC) in presence of chitosan-arginine: 24 hour treatment.
Description: as §2

In experiment [10] the test system is K. pneumoniae. Put plainly: Sensitization summary: K. pneumoniae to Gentamicin. It is filed as cell-based, Klebsiella pneumoniae. Here is the method: as §2, §3
Experiment [11] has as its system A. baumannii. Put plainly: Sensitization summary: A. baumannii to Gentamicin. It is filed as cell-based, Acinetobacter baumannii.
Description: as §2

The mark [12] stands for this setting: 0 μg/ml chitosan-arginine added (antibiotic alone).
Where [13] appears, read: 0.5 μg/ml chitosan-arginine added.
The mark [14] stands for this setting: 1 μg/ml chitosan-arginine added.
[15] abbreviates: 2 μg/ml chitosan-arginine added.
The mark [16] stands for this setting: 4 μg/ml chitosan-arginine added, * = lowest value measured.
[17] abbreviates: with chitosan-arginine 0.125 μg/mL, 24 hour treatment.

Take `O=C(O)c1cn(C2CC2)c2cc(N3CCNCC3)c(F)cc2c1=O` [Ciprofloxacin]: the MIC of antibiotic in experiment [1] (setting [12]) is 2 µg/mL; in [1] (setting [13]), 1 µg/mL; in experiment [1] (setting [14]) it was 1 µg/mL; in [1] (setting [15]) it was “.5 µg/mL”. The “factor of decrease of MIC” value in experiment [1] is listed as at least 80.

In the case of `C/C(=C\C(=O)OCCCCCCCCC(=O)O)C[C@@H]1OC[C@H](C[C@@H]2O[C@H]2[C@@H](C)[C@H](C)O)[C@@H](O)[C@H]1O` [Mupirocin], in experiment [2] (1 μg/mL), the “effect of mupirocin alone on MMRSA” value is “completely ineffective”. Also, the “antibacterial effectiveness of Mupirocin alone” value in experiment [2] (doses below 64 to 128 μg/mL) is “ineffective”. The “mupirocin concentration at which MMRSA is sensitive” value in experiment [2] (mupirocin alone, 24 hours in water) came to 128 µg/mL. The “lowest Mupirocin dose to which MMRSA is sensitized” value in experiment [2] (with 4 μg/mL chitosan-arginine) came to 8 µg/mL. In experiment [3], the “MIC of antibiotic alone against resistant bacteria” value (from here on “MIC of antibiotic alone”) was “MMRSA (>64) μg/mL”.

Consider `Cc1onc(-c2ccccc2)c1C(=O)N[C@@H]1C(=O)N2[C@@H]1SC(C)(C)[C@@H]2C(=O)O` [Oxacillin], for which the bactericidal concentration in experiment [4] was over 6.25 µg/mL. Further, the “effect on growth of the bacteria, agent alone” value in experiment [5] is “Neither antimicrobial alone had a significant an effect”. The values for the MIC in experiment [6] (read-out: MIC of Oxa alone) and in experiment [6] (read-out: MIC of Oxa with C/A) were 4 µg/mL and 1 µg/mL, respectively. For the same molecule, the “MIC of antibiotic alone” value in experiment [7] (MRSA, Oxacillin resistance breakpoint 4 μg/mL) is reported as “MRSA (>25) μg/mL”. The “Antibiotic concentration (MIC) in presence of chitosan-arginine” value (from here on “Antibiotic concentration (MIC)”) in experiment [7] (with chitosan-arginine 4 μg/mL, 24 hour treatment) came out at 0.2 µg/mL.

Take `CO[C@H]1/C=C/O[C@@]2(C)Oc3c(C)c(O)c4c(O)c(c(/C=N/N5CCN(C)CC5)c(O)c4c3C2=O)NC(=O)/C(C)=C\C=C\[C@H](C)[C@H](O)[C@@H](C)[C@@H](O)[C@@H](C)[C@H](OC(C)=O)[C@@H]1C` [Rifampicin]: the MIC of antibiotic in experiment [1] (setting [12]) turned out to be 8 µg/mL; in experiment [1] (setting [13]), 4 µg/mL; in [1] (setting [14]) it was 2 µg/mL; in experiment [1] (setting [15]) it was 1 µg/mL; in experiment [1] (setting [16]), 0.5 µg/mL. In [1], the “factor of decrease of MIC” value was 16.

For `[Ag]` [Silver], the MIC of antibiotic in [1] (setting [12]) was 0.042 µg/mL; in experiment [1] (setting [13]), 0.021 µg/mL; in experiment [1] (setting [14]), 0.021 µg/mL; in experiment [1] (setting [15]), 0.005 µg/mL; in experiment [1] (setting [16]) it was ≤ 0.001* μg/ml. In addition, the “factor of decrease of MIC” value in experiment [1] is given as at least 40.

Turning to `NC[C@H]1O[C@H](O[C@H]2[C@H](O)[C@@H](O[C@H]3O[C@H](CO)[C@@H](O)[C@H](N)[C@H]3O)[C@H](N)C[C@@H]2N)[C@H](N)C[C@@H]1O` [Tobramycin], in [8], the MIC stood at 0.5 µg/mL.

With `CN[C@H](CC(C)C)C(=O)N[C@H]1C(=O)N[C@@H](CC(N)=O)C(=O)N[C@H]2C(=O)N[C@H]3C(=O)N[C@H](C(=O)N[C@H](C(=O)O)c4cc(O)cc(O)c4-c4cc3ccc4O)[C@H](O)c3ccc(c(Cl)c3)Oc3cc2cc(c3O[C@@H]2O[C@H](CO)[C@@H](O)[C@H](O)[C@H]2O[C@H]2C[C@](C)(N)[C@H](O)[C@H](C)O2)Oc2ccc(cc2Cl)[C@H]1O` [Vancomycin], the “MIC of antibiotic alone” value in [9] (VRE, Vancomycin resistance breakpoint 32 μg/mL) is on record as “VRE (>32) μg/mL”. For the same molecule, the “Antibiotic concentration (MIC)” value in experiment [9] (with chitosan-arginine 2 μg/mL) was 2 µg/mL; in [9] (with chitosan-arginine 4 μg/mL) it was 12.5 µg/mL.

Take Gentamicin: the “MIC of antibiotic alone” value is recorded as “K. pneumoniae (64) μg/mL” in experiment [10] (K. pneumoniae, Gentamicin resistance breakpoint 64 μg/mL) and “A. baumannii (64) μg/mL” in experiment [11] (A. baumannii, Gentamicin resistance breakpoint 64 μg/mL). Besides, the “Antibiotic concentration (MIC)” value in experiment [10] (setting [17]) and in experiment [11] (setting [17]) was 16 µg/mL each time.

Consider Neomycin, for which the MIC of antibiotic in [1] (setting [12]) came out at 8 µg/mL; in [1] (setting [13]) it was 4 µg/mL; in experiment [1] (setting [14]), 2 µg/mL; in [1] (setting [15]), 1 µg/mL; in experiment [1] (setting [16]), 0.5 µg/mL. In addition, in experiment [1], the “factor of decrease of MIC” value turned out to be 16.

The values above are taken from patent US8916542B2, “Chitosan derivatives, compositions and related methods of use” (Synedgen, Inc., priority 2008, dated 2014).
